Laboratory results from patent publication US12660819B2, “Herbicidal derivatives” (SYNGENTA CROP PROTECTION AG, priority 2020, dated 2026).

Key:
Format in all cases: in vivo
[1] = test system: Echinochloa crus-galli (ECHCG); experiment: Pre-emergence Test (glasshouse, percentage damage to the plant); details: 1000 g/ha unless otherwise stated, five-point scale
[2] = test system: Solanum nigrum (SOLNI); experiment: as above; details: 1000 g/ha unless otherwise stated, five-point scale
[3] = test system: Ipomoea hederacea (IPOHE); experiment: as above; details: 1000 g/ha unless otherwise stated, five-point scale
[4] = test system: Amaranthus retoflexus (AMARE); experiment: as above; details: 1000 g/ha unless otherwise stated, five-point scale
[5] = test system: Lolium perenne (LOLPE); experiment: Post-emergence Test (glasshouse, percentage damage to the plant); details: post-emergence spray, 1000 g/ha unless otherwise stated, evaluated after 13 days
Procedure, shortened: (§1)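 Percentage damage to the plant, assessed 13 days after application and scored 1–5 in 20% bands. Pots sown in standard soil received compound at 1000 g/ha unless otherwise stated, sprayed under 24/16 °C, 14 h light, 65% humidity.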

[6] = test system: Echinochloa crus-galli (ECHCG); experiment: as above; details: post-emergence spray, 1000 g/ha unless otherwise stated, evaluated after 13 days
Procedure, shortened: as §1

[7] = test system: Setaria faberi (SETFA); experiment: as above; details: post-emergence spray, 1000 g/ha unless otherwise stated, evaluated after 13 days
Procedure, shortened: (§2)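 Seeds sown in standard soil in a glasshouse (24/16 °C day/night, 14 h light, 65% humidity), then sprayed with an aqueous solution of the compound formulated in acetone/water 50:50 with 0.5% Tween 20 at 1000 g/ha unless otherwise stated. Percentage damage was scored after 13 days on a five-point scale (5=81-100%; 1=0-20%).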

[8] = test system: Amaranthus retoflexus (AMARE); experiment: as above; details: post-emergence spray, 1000 g/ha unless otherwise stated, evaluated after 13 days
Procedure, shortened: as §1

[9] = test system: Ipomoea hederacea (IPOHE); experiment: as above; details: post-emergence spray, 1000 g/ha unless otherwise stated, evaluated after 13 days
Procedure, shortened: as §2

[10] = test system: Solanum nigrum (SOLNI); experiment: as above; details: post-emergence spray, 1000 g/ha unless otherwise stated, evaluated after 13 days
Procedure, shortened: as §1

[11] = test system: Setaria faberi (SETFA); experiment: Pre-emergence Test (glasshouse, percentage damage to the plant); details: 1000 g/ha unless otherwise stated, five-point scale
[12] = test system: Lolium perenne (LOLPE); experiment: as above; details: 1000 g/ha unless otherwise stated, five-point scale

| SMILES | percentage damage to the plant, ECHCG [1] | percentage damage to the plant, SOLNI [2] | percentage damage to the plant, IPOHE [3] | percentage damage to the plant, AMARE [4] | Post-emergence Test LOLPE, percentage damage to the plant (five-point scale) [5] | Post-emergence Test ECHCG, percentage damage to the plant (five-point scale) [6] | Post-emergence Test SETFA, percentage damage to the plant (five-point scale) [7] | Post-emergence Test AMARE, percentage damage to the plant (five-point scale) [8] | Post-emergence Test IPOHE, percentage damage to the plant (five-point scale) [9] | Post-emergence Test SOLNI, percentage damage to the plant (five-point scale) [10] | percentage damage to the plant, SETFA [11] | percentage damage to the plant, LOLPE [12] |
| --- | --- | --- | --- | --- | --- | --- | --- | --- | --- | --- | --- | --- |
| CCn1c(C)c(-c2ccc(F)nc2)c(=O)c(C(=O)O)c1-c1ccc(Cl)c(Cl)c1 [Compound 8, 2-(3,4-dichlorophenyl)-1-ethyl-5-(6-fluoro-3-pyridyl)-6-methyl-4-oxo-pyridine-3-carboxylic acid] | 2 (2=21-40%) | 3 (3=41-60%) | 1 (1=0-20%) | 3 (3=41-60%) | 3 (3=41-60%) | 4 (4=61-80%) | 5 (5=81-100%) | 5 (5=81-100%) | 4 (4=61-80%) | 5 (5=81-100%) | 4 (4=61-80%) | 3 (3=41-60%) |
| CCn1c(C)c(-c2ccc(OC)nc2)c(=O)c(C(=O)O)c1-c1ccc(Cl)c(Cl)c1 [Compound 126, 2-(3,4-dichlorophenyl)-1-ethyl-5-(6-methoxy-3-pyridyl)-6-methyl-4-oxo-pyridine-3-carboxylic acid] | 2 (2=21-40%) | 4 (4=61-80%) | 3 (3=41-60%) | 5 (5=81-100%) | 2 (2=21-40%) | 4 (4=61-80%) | 5 (5=81-100%) | 5 (5=81-100%) | 4 (4=61-80%) | 5 (5=81-100%) | 4 (4=61-80%) | 0 |
| CCn1c(C)c(-c2ccsc2)c(=O)c(C(=O)O)c1-c1ccc(Cl)c(Cl)c1 [Compound 30, 2-(3,4-dichlorophenyl)-1-ethyl-6-methyl-4-oxo-5-(3-thienyl)pyridine-3-carboxylic acid] | 3 (3=41-60%) | 2 (2=21-40%) | 2 (2=21-40%) | 1 (1=0-20%) | 2 (2=21-40%) | 2 (2=21-40%) | 3 (3=41-60%) | 4 (4=61-80%) | 3 (3=41-60%) | 3 (3=41-60%) | 4 (4=61-80%) | 2 (2=21-40%) |
| CCn1c(C)c(-c2ccncc2)c(=O)c(C(=O)O)c1-c1ccc(Cl)c(Cl)c1 [Compound 25, 2-(3,4-dichlorophenyl)-1-ethyl-6-methyl-4-oxo-5-pyridin-1-ium-4-yl-pyridine-3-carboxylic acid;2,2,2-trifluoroacetate] | 1 (1=0-20%) | 1 (1=0-20%) | 1 (1=0-20%) | 1 (1=0-20%) | 1 (1=0-20%) | 4 (4=61-80%) | 4 (4=61-80%) | 3 (3=41-60%) | 2 (2=21-40%) | 2 (2=21-40%) | 3 (3=41-60%) | 1 (1=0-20%) |
| CCn1c(C)c(-c2cncn2C)c(=O)c(C(=O)OC)c1-c1ccc(Cl)c(Cl)c1 [Compound 39, methyl 2-(3,4-dichlorophenyl)-1-ethyl-6-methyl-5-(3-methylimidazol-4-yl)-4-oxo-pyridine-3-carboxylate] | 1 (1=0-20%) | 1 (1=0-20%) | 1 (1=0-20%) | 1 (1=0-20%) | 1 (1=0-20%) | 1 (1=0-20%) | 1 (1=0-20%) | 1 (1=0-20%) | 1 (1=0-20%) | 1 (1=0-20%) | 1 (1=0-20%) | 1 (1=0-20%) |
| CCn1c(C)c(-c2ccccc2Cl)c(=O)c(C(=O)O)c1-c1ccc(Cl)c(Cl)c1 [Compound 13, 5-(2-chlorophenyl)-2-(3,4-dichlorophenyl)-1-ethyl-6-methyl-4-oxo-pyridine-3-carboxylic acid] | 5 (5=81-100%) | 4 (4=61-80%) | 4 (4=61-80%) | 4 (4=61-80%) | 4 (4=61-80%) | 4 (4=61-80%) | 4 (4=61-80%) | 4 (4=61-80%) | 4 (4=61-80%) | 3 (3=41-60%) | 5 (5=81-100%) | 2 (2=21-40%) |
| CCn1c(C)c(-c2ncco2)c(=O)c(C(=O)OC)c1-c1ccc(Cl)c(Cl)c1 [Compound 38, methyl 2-(3,4-dichlorophenyl)-1-ethyl-6-methyl-5-oxazol-2-yl-4-oxo-pyridine-3-carboxylate] | 1 (1=0-20%) | 1 (1=0-20%) | 1 (1=0-20%) | 1 (1=0-20%) | 1 (1=0-20%) | 1 (1=0-20%) | 1 (1=0-20%) | 1 (1=0-20%) | 1 (1=0-20%) | 1 (1=0-20%) | 1 (1=0-20%) | 1 (1=0-20%) |
| CCn1c(COC)c(-c2ccc(Cl)cc2)c(=O)c(C(=O)O)c1-c1ccc(Cl)c(Cl)c1 [Compound 7, 5-(4-chlorophenyl)-2-(3,4-dichlorophenyl)-1-ethyl-6-(methoxymethyl)-4-oxo-pyridine-3-carboxylic acid] | 2 (2=21-40%) | 1 (1=0-20%) | 1 (1=0-20%) |  | 1 (1=0-20%) | 4 (4=61-80%) | 4 (4=61-80%) | 5 (5=81-100%) | 2 (2=21-40%) | 2 (2=21-40%) | 2 (2=21-40%) | 1 (1=0-20%) |
| CCn1c(C)c(-c2ccc(Cl)nc2)c(=O)c(C(=O)O)c1-c1ccc(Cl)c(Cl)c1 [Compound 12, 5-(6-chloro-3-pyridyl)-2-(3,4-dichlorophenyl)-1-ethyl-6-methyl-4-oxo-pyridine-3-carboxylic acid] | 4 (4=61-80%) |  | 1 (1=0-20%) | 5 (5=81-100%) | 3 (3=41-60%) | 4 (4=61-80%) | 5 (5=81-100%) | 5 (5=81-100%) | 4 (4=61-80%) |  | 5 (5=81-100%) | 1 (1=0-20%) |
| CCn1c(C)c(-c2cccnc2)c(=O)c(C(=O)O)c1-c1ccc(Cl)c(Cl)c1 [Compound 21, 2-(3,4-dichlorophenyl)-1-ethyl-6-methyl-4-oxo-5-pyridin-1-ium-3-yl-pyridine-3-carboxylic acid;2,2,2-trifluoroacetate] | 2 (2=21-40%) |  |  |  |  | 3 (3=41-60%) |  | 3 (3=41-60%) | 3 (3=41-60%) | 4 (4=61-80%) | 3 (3=41-60%) |  |
